System: 616215-338-R-J1-PDC tumor spheroids, viability
Assay: Anticancer human tumor 616215-338-R-J1-PDC patient-derived colon adenocarcinoma cell line growth inhibition [GQUAD]
Conditions: spheroids with HUVEC and MSC; for IC50: curve of first compound; for viability, T/C: stronger effect = lower value
How it was run: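 Viability of tumor cells grown as complex spheroids with endothelial and stromal cells, exposed to drug combinations. Top concentration at or near clinical Cmax (else 10 microM), diluted in half-log increments.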
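Also: spheroids exposed to agents for 7 days before readout.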
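For viability, T/C in this document: percent viability relative to DMSO vehicle control wells taken as 100%.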

CCc1c2c(nc3ccc(O)cc13)-c1cc3c(c(=O)n1C2)COC(=O)[C@]3(O)CC + Cc1cnc(CNC(=O)c2c(=O)c3ccc(N4CCCN(C)CC4)nc3n3c2sc2ccccc23)cn1
IC50 (second compound 0.0316 µM): 9.82 nM | IC50 (second compound 0.1 µM): 5.05 nM | IC50 (second compound 0.316 µM): < 0.999 nM | IC50 (second compound 1 µM): < 0.999 nM | IC50 (second compound 3.16 µM): < 0.999 nM | IC50 (second compound 10 µM): < 0.999 nM | viability, T/C (second compound 0.0316 µM, first compound 0.000999 µM): 105% | viability, T/C (second compound 0.0316 µM, first compound 0.00316 µM): 79.5% | viability, T/C (second compound 0.0316 µM, first compound 0.00999 µM): 47.5% | viability, T/C (second compound 0.0316 µM, first compound 0.0316 µM): 30.2% | viability, T/C (second compound 0.0316 µM, first compound 0.0999 µM): 22.1% | viability, T/C (second compound 0.0316 µM, first compound 0.316 µM): 12.9% | viability, T/C (second compound 0.1 µM, first compound 0.000999 µM): 62.2% | viability, T/C (second compound 0.1 µM, first compound 0.00316 µM): 58.3% | viability, T/C (second compound 0.1 µM, first compound 0.00999 µM): 39.8% | viability, T/C (second compound 0.1 µM, first compound 0.0316 µM): 25.6% | viability, T/C (second compound 0.1 µM, first compound 0.0999 µM): 18.2% | viability, T/C (second compound 0.1 µM, first compound 0.316 µM): 9.44% | viability, T/C (second compound 0.316 µM, first compound 0.000999 µM): 49.3% | viability, T/C (second compound 0.316 µM, first compound 0.00316 µM): 37% | viability, T/C (second compound 0.316 µM, first compound 0.00999 µM): 24.6% | viability, T/C (second compound 0.316 µM, first compound 0.0316 µM): 31.4% | viability, T/C (second compound 0.316 µM, first compound 0.0999 µM): 13.5% | viability, T/C (second compound 0.316 µM, first compound 0.316 µM): 6.95% | viability, T/C (second compound 1 µM, first compound 0.000999 µM): 38.1% | viability, T/C (second compound 1 µM, first compound 0.00316 µM): 19.4% | viability, T/C (second compound 1 µM, first compound 0.00999 µM): 24.9% | viability, T/C (second compound 1 µM, first compound 0.0316 µM): 18.7% | viability, T/C (second compound 1 µM, first compound 0.0999 µM): 13.7% | viability, T/C (second compound 1 µM, first compound 0.316 µM): 0.14% | viability, T/C (second compound 3.16 µM, first compound 0.000999 µM): 20% | viability, T/C (second compound 3.16 µM, first compound 0.00316 µM): 25.2% | viability, T/C (second compound 3.16 µM, first compound 0.00999 µM): 21.1% | viability, T/C (second compound 3.16 µM, first compound 0.0316 µM): 14.4% | viability, T/C (second compound 3.16 µM, first compound 0.0999 µM): 17.8% | viability, T/C (second compound 3.16 µM, first compound 0.316 µM): 0.15% | viability, T/C (second compound 10 µM, first compound 0.000999 µM): 23.8% | viability, T/C (second compound 10 µM, first compound 0.00316 µM): 22% | viability, T/C (second compound 10 µM, first compound 0.00999 µM): 23.6% | viability, T/C (second compound 10 µM, first compound 0.0316 µM): 5.75% | viability, T/C (second compound 10 µM, first compound 0.0999 µM): 0.31% | viability, T/C (second compound 10 µM, first compound 0.316 µM): 0.21%

Source: PubChem BioAssay AID2060493 (Molecular Pharmacology Branch, DTP, NCI, 2025)
